Reference: US6524527B2 (Natural Corporation, priority 1998, dated 2003)

Tests used:
Assay type in all cases: physicochemical
[1] = Oxidation of CLA methyl ester in open test tube, GLC composition; details: for relative content, Day 0: CLA methyl ester sample before oxidation; for relative content, Day 115: open test tube, 115 days, room temperature, free access to air
Protocol: This example describes the oxidation of CLA exposed to open air. A small sample of methyl ester was prepared and stored in an open test tube for 115 days at room temperature with free access to air. […] A chromatogram of the same sample was also run on a polar column. The results indicated the presence of a large number of short chain polar components (i.e., breakdown products).

[2] = Oil stability index (OSI) of CLA triacylglyceride with added antioxidants; details: antioxidant added to CLA triacylglyceride, 0-0.1 %
Protocol: In some embodiments, oxidation of CLA is prevented by the addition of metal oxidant chelators or peroxide scavengers to the finished product. In some embodiments, the amount of oxidation is measured by the oil stability index (OSI). The OSI (See e.g., AOCS official method Cd 12b-92) is a measurement of an oil's resistance to oxidation. It is defined mathematically as the time of maximum change of the rate of oxidation. This rate can be determined mathematically. Experimentally, the OSI is calculated by measuring the change in conductivity of deionized water is which volatile organic acids (oxidation products) are dissolved. When performing OSI measurements, it is important to avoid contamination by trace amounts of metals, which can accelerate the oxidation process. This is generally accomplished by careful washing of all glassware used with a cleaning solution lacking chromate or surfactants. Water must be deionized and all solvents must be of a highly purified grade. […]
The oxygen stability index (OSI) was measured using a method known in the art (AOCS official method Cd 12b-92 using an OSI apparatus from Omnion Instruments). […] The conductivity of the water is continually monitored over time. The OSI (the point of maximum change of the rate of oxidation) is determined mathematically. […]

[3] = Peroxide value (PV), colorimetric ferric thiocyanate method; details: after storage in open glass
Source text: The present invention is not limited to any one mechanism. Indeed, an understanding of the mechanism of the invention is not necessary to produce the composition or perform the methods of the present invention.

Row | Compound | relative content, Day 0 [1] | relative content, Day 115 [1] | increase of the OSI value by addition of antioxidant [2] | peroxide values (PV) [3]
1 | CCCCCCCC/C=C\CCCCCCCC(=O)O [C18:1, c9, oleic acid] | 4.14 | 3.19 | – | –
2 | CCCCCC/C=C\CCCCCCCCCC(=O)O [C18:1, c11] | 0.13 | 0.10 | – | –
3 | CCCCCCCC/C=C/CCCCCCCC(=O)O [C18:1, t9] | 0 | 0.33 | – | –
4 | CCCCC/C=C\C/C=C\CCCCCCCC(=O)O [C18:2, c9, c12, 9,12-linoleic acid] | 0.06 | 0.03 | – | –
5 | CCCCCCCCCCCCCCCC(=O)O [C 16:0, palmitic acid] | 1.36 | 1027 | – | –
6 | CCCCCC/C=C\C=C/CCCCCCCC(=O)O [CLA, c9, c11] | 0.11 | 0 | – | –
7 | CCCCCC/C=C/C=C\CCCCCCCC(=O)O [CLA, c9, t11, c9,t11-octadecadienoic] | 7.68 | 0 | – | –
8 | CCCCC/C=C\C=C/CCCCCCCCC(=O)O [CLA, c10, c12, c10,c12 octadecadienoic acid] | 0.09 | 0 | – | –
9 | CCCCC/C=C\C=C\CCCCCCCCC(=O)O [CLA, t10, c12, t10,c12-octadecadienoic acid] | 7.63 | 0 | – | –
10 | Cc1c(C)c2c(c(C)c1O)CC[C@@](C)(CCC[C@H](C)CCC[C@H](C)CCCC(C)C)O2 [alpha-tocopherol] | – | – | did not significantly increase | –
11 | CCCCC/C=C\C/C=C\CCCCCCCC(=O)O [linoleic acid] | – | – | – | 370
